In patent US20240327311A1, “Benzothiazole Derivative as a Urease Inhibitor for Fertilizer Application” (Sabic Agri-Nutrients Company, priority 2021, published 2024):

Experiments:
urease = urease (Canavalia ensiformis, UniProt P07374); details: cited from earlier work
[1] = similar conditions; U.S. Pat. No. 10,640,430; cited from earlier work
[2] = similar storage conditions; Soil Use and Management, 2008, 24, 246; cited from earlier work
[3] = Thermogravimetric analysis and isothermal study under air; type: physicochemical; details: air atmosphere

urease, sequence (P07374 whole entry, looked up): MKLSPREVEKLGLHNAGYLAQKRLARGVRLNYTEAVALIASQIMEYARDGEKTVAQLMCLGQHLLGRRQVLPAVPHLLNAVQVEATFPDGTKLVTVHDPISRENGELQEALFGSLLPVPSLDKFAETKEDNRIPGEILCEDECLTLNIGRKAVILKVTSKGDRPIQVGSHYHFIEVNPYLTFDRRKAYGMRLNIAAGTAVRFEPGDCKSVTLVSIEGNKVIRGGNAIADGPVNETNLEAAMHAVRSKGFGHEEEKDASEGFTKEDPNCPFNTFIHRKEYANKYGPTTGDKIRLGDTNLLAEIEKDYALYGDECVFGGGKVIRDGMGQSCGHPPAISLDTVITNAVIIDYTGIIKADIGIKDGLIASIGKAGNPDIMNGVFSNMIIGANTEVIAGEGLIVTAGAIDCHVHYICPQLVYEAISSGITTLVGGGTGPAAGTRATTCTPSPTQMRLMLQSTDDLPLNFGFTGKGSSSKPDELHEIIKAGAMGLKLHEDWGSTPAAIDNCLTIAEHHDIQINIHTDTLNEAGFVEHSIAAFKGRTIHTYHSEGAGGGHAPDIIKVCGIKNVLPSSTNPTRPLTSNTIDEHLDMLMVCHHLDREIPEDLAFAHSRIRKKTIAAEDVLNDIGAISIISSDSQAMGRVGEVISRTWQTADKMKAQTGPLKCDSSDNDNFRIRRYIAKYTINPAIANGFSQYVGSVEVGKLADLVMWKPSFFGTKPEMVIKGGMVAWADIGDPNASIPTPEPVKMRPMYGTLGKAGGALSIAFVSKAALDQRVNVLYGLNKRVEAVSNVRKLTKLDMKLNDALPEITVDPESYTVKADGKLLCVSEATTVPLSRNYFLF

NP(N)(=O)Nc1ccccc1[N+](=O)[O-]
IC50 (urease): 3 nM

CCCCNP(N)(N)=S [drawing 22]
IC50 (urease): 100 nM

CCCCNP(N)(N)=S [NBTPT, N-(n-butyl) thiophosphoric triamide]
degradation under urea melt conditions [1]: significant degradation | storage stability [2]: unstable

Oc1cccc(-c2nc3ccccc3s2)c1 [BZT, 2-(3-Hydroxyphenyl) benzothiazole]
amount of BZT lost (isothermal study) ([3]; 140° C., 40 minutes): about 0.26% | onset of degradation (TGA) [3]: 255.1 °C
